ChEMBL document CHEMBL1201862, “PubChem BioAssay data set” (2004)
Active and inactive are the calls of the source.

Columns and labels:
[1] = A549 cell cytotoxicity, dose response, cytotoxicity control, plate reader, cherry-pick, antagonist series (AID 743412); type: functional, cell-based
[2] = LGR2 antagonists, dose response, cell-based, HEK293, CRE-luciferase reporter, cherry pick (AID 743342); type: functional
[3] = human group III sPLA2 inhibitors, dose response, biochemical, QFRET, IC50 (AID 743457);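 further: green fluorescence rise as the enzyme cleaves BODIPY PC-A2 in liposomes; potency for inhibition of the enzyme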
[4] = target: T1, Polyadenylate-binding protein 1 (Homo sapiens, UniProt P11940); experiment: PABP1 MLLE–PAM2 interaction inhibitors, dose response, miRNA deadenylation inhibitor project, biochemical, fluorescence polarization, Cy5-PAM2 peptide, secondary (AID 602260); type: functional; details: read-out: IC50_Mean
T1 sequence (P11940 whole entry): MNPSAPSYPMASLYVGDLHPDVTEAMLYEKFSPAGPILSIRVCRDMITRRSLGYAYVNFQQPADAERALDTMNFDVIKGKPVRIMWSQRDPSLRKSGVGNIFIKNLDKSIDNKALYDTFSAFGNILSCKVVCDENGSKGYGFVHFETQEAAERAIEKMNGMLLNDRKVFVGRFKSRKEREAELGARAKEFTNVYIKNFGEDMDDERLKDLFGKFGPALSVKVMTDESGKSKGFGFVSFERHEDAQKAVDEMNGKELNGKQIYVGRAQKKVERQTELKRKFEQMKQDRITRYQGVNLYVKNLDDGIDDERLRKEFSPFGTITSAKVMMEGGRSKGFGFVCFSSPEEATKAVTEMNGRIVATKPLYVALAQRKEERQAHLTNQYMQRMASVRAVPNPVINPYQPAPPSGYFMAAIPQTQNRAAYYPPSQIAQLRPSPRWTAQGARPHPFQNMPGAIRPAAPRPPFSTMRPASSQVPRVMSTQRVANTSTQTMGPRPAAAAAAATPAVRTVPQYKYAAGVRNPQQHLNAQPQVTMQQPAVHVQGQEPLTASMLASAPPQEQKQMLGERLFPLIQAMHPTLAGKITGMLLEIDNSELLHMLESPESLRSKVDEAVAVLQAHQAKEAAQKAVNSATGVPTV

[5] = target: T1, Polyadenylate-binding protein 1; experiment: PABP1 MLLE–PAM2 binding inhibitor potency, dose response, biochemical, fluorescence polarization, FITC-PAM2 peptide (AID 602259); type: functional; details: read-out: IC50_Mean
A549 = experiment: A549 cell toxicity, dose response, cytotoxicity control, plate reader, cherry-pick samples (AID 687028); type: functional, cell-based; details: Homo sapiens
[6] = target: Disintegrin and metalloproteinase domain-containing protein 17 (Homo sapiens, UniProt P78536); experiment: exosite inhibitors of ADAM17, dose response, biochemical (AID 743260)
[7] = ADAM10 protease inhibitors, dose response, selectivity assay for ADAM17 exosite inhibitor project, biochemical, FRET peptide substrate, recombinant human ADAM10 (AID 743259);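 further: ADAM10 enzyme cleaving a FRET peptide substrate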
[8] = target: T2, Small ubiquitin-related modifier 2 (Homo sapiens, UniProt P61956); experiment: inhibitors of SUMO2 protein-protein interaction, dose response, selectivity assay for SUMO1 interaction inhibitor project, biochemical, FRET, human SUMO2, uHTS hits (AID 624384); type: functional; details: read-out: IC50_Mean
T2 sequence (P61956 whole entry): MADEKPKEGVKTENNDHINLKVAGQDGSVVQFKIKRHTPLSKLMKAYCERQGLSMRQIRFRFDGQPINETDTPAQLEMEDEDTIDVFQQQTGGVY

Genome polyprotein = Genome polyprotein (dengue virus type 2, UniProt P29990); experiment: Dengue-2 NS5 methyltransferase inhibitors, primary screen, biochemical, confirmation dose response (AID 588689); type: functional
[9] = target: T3, Rac GTPase-activating protein 1 (Homo sapiens, UniProt Q9H0H5); experiment: MgcRacGAP GTPase-activating activity inhibitors, confirmation, biochemical, ADP Hunter fluorescence, primary and confirmatory (AID 624330); type: functional
T3 sequence (Q9H0H5 whole entry): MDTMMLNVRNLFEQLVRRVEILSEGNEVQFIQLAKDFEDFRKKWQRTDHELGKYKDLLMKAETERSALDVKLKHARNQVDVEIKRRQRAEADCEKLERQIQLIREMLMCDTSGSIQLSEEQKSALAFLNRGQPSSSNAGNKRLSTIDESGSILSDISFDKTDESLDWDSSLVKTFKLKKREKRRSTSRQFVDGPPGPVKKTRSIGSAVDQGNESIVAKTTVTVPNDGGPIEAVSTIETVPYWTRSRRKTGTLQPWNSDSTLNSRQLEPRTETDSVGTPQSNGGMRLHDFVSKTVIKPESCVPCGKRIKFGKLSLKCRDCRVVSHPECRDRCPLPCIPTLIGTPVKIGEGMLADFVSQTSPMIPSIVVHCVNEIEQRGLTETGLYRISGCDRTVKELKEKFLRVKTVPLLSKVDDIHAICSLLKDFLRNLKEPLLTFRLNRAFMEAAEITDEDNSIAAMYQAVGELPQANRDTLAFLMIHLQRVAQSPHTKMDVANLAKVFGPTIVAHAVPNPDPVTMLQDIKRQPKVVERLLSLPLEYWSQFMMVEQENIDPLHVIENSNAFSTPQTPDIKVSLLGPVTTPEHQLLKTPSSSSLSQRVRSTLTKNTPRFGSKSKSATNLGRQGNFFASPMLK

[10] = target: T4, Histone-lysine N-methyltransferase NSD2 (Homo sapiens, UniProt O96028); type: biochemical
T4 sequence (O96028 whole entry): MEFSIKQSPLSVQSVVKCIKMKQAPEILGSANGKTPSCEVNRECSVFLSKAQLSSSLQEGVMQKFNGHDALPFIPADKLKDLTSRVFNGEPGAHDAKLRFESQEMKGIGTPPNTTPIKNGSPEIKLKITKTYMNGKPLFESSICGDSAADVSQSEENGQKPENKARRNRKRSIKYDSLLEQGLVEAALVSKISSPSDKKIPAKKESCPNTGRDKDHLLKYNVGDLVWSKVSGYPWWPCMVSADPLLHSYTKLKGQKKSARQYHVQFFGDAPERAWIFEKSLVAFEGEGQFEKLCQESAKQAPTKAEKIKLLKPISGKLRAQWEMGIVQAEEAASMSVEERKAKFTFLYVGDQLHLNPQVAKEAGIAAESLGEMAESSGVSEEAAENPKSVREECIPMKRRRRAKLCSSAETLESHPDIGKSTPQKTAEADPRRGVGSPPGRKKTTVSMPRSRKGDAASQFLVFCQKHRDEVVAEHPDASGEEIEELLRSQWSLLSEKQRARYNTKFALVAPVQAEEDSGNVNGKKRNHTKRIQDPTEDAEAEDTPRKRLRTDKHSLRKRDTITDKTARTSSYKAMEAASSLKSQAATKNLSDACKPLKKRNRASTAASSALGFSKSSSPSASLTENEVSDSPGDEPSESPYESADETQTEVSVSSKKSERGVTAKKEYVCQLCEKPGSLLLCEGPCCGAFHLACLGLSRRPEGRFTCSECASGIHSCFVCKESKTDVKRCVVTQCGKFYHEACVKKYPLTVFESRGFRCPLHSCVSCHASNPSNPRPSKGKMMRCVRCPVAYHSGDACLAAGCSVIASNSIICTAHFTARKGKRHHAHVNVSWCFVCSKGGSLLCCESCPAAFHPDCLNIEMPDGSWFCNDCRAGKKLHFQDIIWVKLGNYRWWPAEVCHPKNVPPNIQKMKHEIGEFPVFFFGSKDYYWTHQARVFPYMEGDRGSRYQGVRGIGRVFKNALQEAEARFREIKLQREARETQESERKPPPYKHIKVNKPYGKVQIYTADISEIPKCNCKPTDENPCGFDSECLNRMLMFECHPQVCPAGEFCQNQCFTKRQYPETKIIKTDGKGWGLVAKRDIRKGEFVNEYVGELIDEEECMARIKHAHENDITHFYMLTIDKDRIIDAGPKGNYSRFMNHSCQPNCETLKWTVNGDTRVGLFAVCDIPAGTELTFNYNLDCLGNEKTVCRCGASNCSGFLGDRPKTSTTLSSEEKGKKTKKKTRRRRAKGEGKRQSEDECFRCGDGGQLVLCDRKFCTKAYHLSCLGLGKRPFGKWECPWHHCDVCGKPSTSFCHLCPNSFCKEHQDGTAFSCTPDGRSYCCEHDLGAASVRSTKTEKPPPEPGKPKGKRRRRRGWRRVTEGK

[11] = target: T5, Sentrin-specific protease 8 (Homo sapiens, UniProt Q96LD8); type: functional
T5 sequence (Q96LD8 whole entry): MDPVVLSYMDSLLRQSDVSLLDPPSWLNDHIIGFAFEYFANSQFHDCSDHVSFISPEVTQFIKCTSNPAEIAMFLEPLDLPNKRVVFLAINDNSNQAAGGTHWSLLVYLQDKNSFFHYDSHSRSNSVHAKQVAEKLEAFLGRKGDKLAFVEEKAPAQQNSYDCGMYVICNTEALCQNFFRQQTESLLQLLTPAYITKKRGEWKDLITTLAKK

[12] = target: T2, Small ubiquitin-related modifier 2; experiment: SUMO2–SIM peptide binding inhibitors, dose response, selectivity assay for SUMO1 interaction inhibitor project, biochemical, fluorescence polarization, uHTS hits (AID 624385); type: functional; details: read-out: IC50_Mean
Fatty acid synthase [13] = target: T6, Fatty acid synthase (Homo sapiens, UniProt P49327); experiment: FAS thioesterase domain inhibitors, dose response, biochemical, kinetic fluorescence intensity (AID 624326); type: functional;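 further: rate of fluorescence rise from hydrolysis of a fluorogenic O-methyl fluorescein ester substrate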
T6 sequence (P49327 whole entry, the tested form may be a part): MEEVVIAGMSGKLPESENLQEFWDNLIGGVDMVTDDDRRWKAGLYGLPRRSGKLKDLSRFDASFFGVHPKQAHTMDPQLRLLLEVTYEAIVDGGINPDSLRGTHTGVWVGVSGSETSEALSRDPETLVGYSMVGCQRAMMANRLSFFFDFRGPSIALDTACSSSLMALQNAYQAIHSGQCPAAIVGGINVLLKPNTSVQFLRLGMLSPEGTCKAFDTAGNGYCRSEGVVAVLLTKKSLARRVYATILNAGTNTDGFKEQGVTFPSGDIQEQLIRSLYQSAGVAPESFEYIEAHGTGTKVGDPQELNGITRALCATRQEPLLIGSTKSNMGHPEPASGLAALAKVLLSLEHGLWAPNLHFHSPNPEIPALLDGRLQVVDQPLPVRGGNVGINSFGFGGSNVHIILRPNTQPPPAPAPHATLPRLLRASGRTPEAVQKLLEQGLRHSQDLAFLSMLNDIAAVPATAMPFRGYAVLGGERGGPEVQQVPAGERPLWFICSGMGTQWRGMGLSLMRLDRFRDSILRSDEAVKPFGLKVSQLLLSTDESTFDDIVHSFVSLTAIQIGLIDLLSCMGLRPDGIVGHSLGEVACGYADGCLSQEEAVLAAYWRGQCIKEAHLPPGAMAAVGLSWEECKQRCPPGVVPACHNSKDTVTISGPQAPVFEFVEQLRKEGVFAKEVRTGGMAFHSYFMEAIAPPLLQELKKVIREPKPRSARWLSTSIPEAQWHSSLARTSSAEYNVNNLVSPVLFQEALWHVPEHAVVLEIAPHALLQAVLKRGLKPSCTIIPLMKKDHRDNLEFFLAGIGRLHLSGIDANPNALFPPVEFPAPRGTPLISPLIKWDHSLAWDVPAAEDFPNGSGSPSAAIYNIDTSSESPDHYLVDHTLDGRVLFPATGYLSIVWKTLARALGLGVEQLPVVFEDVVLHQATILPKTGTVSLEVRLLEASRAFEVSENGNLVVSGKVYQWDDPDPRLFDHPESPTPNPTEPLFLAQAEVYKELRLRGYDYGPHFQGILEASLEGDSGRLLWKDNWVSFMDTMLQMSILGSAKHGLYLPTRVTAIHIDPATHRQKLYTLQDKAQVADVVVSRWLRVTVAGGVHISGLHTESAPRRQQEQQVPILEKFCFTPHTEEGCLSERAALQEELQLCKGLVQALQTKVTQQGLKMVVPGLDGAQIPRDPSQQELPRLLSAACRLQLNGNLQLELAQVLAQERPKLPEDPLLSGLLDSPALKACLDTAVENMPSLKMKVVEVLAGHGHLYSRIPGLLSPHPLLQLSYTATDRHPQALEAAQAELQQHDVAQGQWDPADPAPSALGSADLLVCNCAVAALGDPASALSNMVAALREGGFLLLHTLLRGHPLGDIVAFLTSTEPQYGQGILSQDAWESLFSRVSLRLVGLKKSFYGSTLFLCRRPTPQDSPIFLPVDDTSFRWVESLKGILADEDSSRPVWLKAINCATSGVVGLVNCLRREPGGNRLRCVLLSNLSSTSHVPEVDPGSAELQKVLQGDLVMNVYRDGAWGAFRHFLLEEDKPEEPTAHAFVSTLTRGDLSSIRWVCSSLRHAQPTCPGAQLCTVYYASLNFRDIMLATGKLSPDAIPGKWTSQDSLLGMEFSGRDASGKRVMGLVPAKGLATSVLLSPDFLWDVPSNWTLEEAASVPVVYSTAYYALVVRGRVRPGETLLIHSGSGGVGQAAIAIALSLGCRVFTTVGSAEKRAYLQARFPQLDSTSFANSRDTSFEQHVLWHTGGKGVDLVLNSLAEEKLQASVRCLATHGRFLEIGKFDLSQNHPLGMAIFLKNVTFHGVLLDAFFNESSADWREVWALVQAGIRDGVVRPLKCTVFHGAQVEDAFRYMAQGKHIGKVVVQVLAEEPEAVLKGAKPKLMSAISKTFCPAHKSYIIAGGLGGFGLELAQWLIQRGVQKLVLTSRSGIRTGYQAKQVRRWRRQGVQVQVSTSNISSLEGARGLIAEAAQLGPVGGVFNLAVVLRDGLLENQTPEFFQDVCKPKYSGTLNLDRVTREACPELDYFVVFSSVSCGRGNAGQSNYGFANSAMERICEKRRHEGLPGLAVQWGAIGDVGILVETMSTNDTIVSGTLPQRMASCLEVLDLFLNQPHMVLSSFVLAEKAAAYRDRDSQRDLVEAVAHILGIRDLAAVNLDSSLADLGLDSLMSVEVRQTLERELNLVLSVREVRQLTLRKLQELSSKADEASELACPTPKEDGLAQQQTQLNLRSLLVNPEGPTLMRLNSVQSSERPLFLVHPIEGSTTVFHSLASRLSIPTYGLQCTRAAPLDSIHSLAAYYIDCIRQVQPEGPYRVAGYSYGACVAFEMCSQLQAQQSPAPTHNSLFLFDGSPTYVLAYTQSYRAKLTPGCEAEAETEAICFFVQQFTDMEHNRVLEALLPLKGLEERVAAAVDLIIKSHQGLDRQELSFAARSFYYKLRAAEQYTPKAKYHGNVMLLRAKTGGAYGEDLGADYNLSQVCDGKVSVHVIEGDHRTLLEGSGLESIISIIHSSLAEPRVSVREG

Nonstructural protein 1 = Nonstructural protein 1 (Influenza A virus, UniProt Q194T2); type: functional, Influenza A virus (A/California/07/2009(H1N1))
ORF 73 = ORF 73 (Human herpesvirus 8, UniProt O40947); experiment: inhibitors of C-LANA binding to LBS DNA, dose response, biochemical, fluorescence polarization, cherry-picked samples (AID 504725); set-up: species or system Human gammaherpesvirus 8;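 further: fluorescence polarization of a labeled DNA duplex reporting LANA DNA binding; potency is for inhibitors that block LANA binding to the DNA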
ORF 73, sequence (O40947 whole entry): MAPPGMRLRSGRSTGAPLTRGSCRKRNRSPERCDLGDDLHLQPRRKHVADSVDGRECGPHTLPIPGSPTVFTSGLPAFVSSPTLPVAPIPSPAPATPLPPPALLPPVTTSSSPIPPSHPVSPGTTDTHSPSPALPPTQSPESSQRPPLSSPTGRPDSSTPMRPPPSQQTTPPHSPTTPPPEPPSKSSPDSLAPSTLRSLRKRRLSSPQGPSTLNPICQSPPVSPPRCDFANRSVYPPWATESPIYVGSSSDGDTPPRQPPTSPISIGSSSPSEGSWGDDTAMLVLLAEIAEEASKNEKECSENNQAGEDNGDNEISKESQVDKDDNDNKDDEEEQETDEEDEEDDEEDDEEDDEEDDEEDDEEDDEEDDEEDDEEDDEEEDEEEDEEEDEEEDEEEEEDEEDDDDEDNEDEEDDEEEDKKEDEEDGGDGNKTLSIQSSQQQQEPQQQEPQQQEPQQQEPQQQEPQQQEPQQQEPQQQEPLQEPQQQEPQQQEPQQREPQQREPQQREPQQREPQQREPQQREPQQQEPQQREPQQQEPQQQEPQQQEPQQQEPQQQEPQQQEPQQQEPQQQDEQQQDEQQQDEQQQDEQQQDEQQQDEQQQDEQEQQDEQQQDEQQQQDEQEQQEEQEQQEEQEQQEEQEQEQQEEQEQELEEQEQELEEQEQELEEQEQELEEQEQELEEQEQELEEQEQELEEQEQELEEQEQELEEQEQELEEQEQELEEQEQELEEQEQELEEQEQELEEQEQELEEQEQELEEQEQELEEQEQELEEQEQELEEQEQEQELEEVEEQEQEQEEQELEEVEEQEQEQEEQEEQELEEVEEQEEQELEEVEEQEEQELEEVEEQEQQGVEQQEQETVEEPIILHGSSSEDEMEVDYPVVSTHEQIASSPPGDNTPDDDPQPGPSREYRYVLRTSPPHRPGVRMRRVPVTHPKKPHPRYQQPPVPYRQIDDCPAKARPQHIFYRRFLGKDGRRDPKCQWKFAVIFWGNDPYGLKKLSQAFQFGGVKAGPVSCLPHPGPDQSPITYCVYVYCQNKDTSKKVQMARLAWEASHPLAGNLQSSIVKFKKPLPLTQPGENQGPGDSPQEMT

[14] = target: T5, Sentrin-specific protease 8; type: functional; remark: listed apart in the source
[15] = target: T7, Small ubiquitin-related modifier 1 (Homo sapiens, UniProt P63165); experiment: inhibitors of SUMO1 partner interactions, dose response, biochemical, FRET (AID 624383); type: functional; details: read-out: IC50_Mean
T7 sequence (P63165 whole entry): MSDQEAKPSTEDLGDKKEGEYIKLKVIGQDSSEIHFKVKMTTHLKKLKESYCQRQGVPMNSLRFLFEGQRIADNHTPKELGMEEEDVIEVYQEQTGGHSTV

[16] = target: T7, Small ubiquitin-related modifier 1; experiment: inhibitors of SUMO1 peptide binding, dose response, biochemical, fluorescence polarization, uHTS hits (AID 624382); type: functional; details: read-out: IC50_Mean
Fatty acid synthase [17] = target: T6, Fatty acid synthase; experiment: FAS thioesterase domain inhibitors, dose response, biochemical, endpoint fluorescence intensity, uHTS hits (AID 624327); type: functional;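 further: fluorescence from hydrolysis of an O-methyl fluorescein acyl ester substrate by the enzyme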
[18] = target: Matrix metalloproteinase-14 (Homo sapiens, UniProt P50281); experiment: Dose Response confirmation of uHTS hits for a small molecule inhibitors of MT1-MMP activation in a fluorescence assay set 1.; type: functional
[19] = T. cruzi growth inhibition in host cells, dose response, cell-based, plate reader, dry powder, set 2 (AID 652275); type: functional
NS3 = NS3 (Hepatitis C virus, UniProt A3EZJ3); experiment: HCV NS3 helicase inhibitor potency, dose response, biochemical, fluorescence polarization, ChemBridge library (AID 743264)
NS3, sequence (A3EZJ3 whole entry): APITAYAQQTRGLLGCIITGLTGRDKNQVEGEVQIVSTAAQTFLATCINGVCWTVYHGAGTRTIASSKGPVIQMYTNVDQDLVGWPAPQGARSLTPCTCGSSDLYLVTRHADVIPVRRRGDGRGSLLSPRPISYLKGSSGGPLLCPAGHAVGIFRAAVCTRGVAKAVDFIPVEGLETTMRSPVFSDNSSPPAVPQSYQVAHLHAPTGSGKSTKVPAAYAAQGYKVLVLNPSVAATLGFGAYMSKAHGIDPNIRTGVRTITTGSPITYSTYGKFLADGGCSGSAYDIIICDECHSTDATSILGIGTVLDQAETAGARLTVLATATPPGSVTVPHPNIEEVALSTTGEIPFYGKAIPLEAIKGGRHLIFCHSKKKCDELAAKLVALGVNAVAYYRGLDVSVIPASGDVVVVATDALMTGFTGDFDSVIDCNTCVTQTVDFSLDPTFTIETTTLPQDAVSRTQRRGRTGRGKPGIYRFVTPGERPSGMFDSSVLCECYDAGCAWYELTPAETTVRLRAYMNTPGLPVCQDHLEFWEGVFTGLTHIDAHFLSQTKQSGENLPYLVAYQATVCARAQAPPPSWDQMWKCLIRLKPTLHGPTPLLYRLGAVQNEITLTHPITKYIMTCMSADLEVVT

HEK293 = experiment: HEK293T cell cytotoxicity, dose response, cytotoxicity control, ATP luminescence, cherry-pick samples (AID 687005); type: functional, cell-based; details: Homo sapiens;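 further: cells exposed to compound for 48 hours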
[20] = HEK293 Cytotoxicity Assay Measured in Cell-Based System Using Plate Reader - 7071-01_Inhibitor_Dose_CherryPick_Activity_Set2.; type: functional
HeLa = experiment: HeLa cell cytotoxicity, dose response, cytotoxicity control, ATP luminescence, cherry-pick samples (AID 687004); type: functional, cell-based; details: Homo sapiens

In the case of C[C@H]1CCCCO[C@@H](CN(C)C(=O)Nc2ccc3c(c2)OCO3)[C@@H](C)CN([C@@H](C)CO)C(=O)c2cc(NC(=O)NC3CCCCC3)ccc2O1, the AC50 [1] is reported as 35.3 µM (active) and the AC50 [2] is reported as 16.9 µM (active).

In the case of Cc1ccc(NC(=S)N/N=C2/CCCCc3ccccc32)cc1, the IC50 [3] is reported as > 122 µM (inactive), the IC50 [4] is reported as > 66 µM (inactive) and the IC50 [5] is reported as > 66 µM (inactive).

In the case of C[C@H]1CCCCO[C@H](CN(C)C(=O)Nc2ccc(C(F)(F)F)cc2)[C@@H](C)CN([C@@H](C)CO)C(=O)c2cc(NC(=O)C3CCCCC3)ccc2O1, the AC50 (A549) is reported as 20.8 µM (active).

In the case of CCOc1ccc(S(=O)(=O)Nc2ccc(F)cc2)c(C)c1C, the IC50 [6] is reported as > 69.5 µM (inactive) and the IC50 [7] is reported as > 7.72 µM (active).

With Cc1ccccc1C1=C/C(=C(\SS/C(C(=O)c2ccc(OCC(=O)O)c(Cl)c2Cl)=C2\C=C(c3ccccc3C)SS2)C(=O)c2ccc(OCC(=O)O)c(Cl)c2Cl)SS1 the IC50 [8] was 2.65 µM (active), the IC50 (Genome polyprotein) was 9.25 µM (active) and the IC50 [9] was 61.1 µM (active). For the same compound, the AC50 [10] was 6.35 µM (active), the IC50 [11] was 56.9 µM (active) and the IC50 [12] was 1.51 µM (active). The IC50 (Fatty acid synthase [13]) was 6.62 µM (active), the IC50 (Nonstructural protein 1) was 16.1 µM (active) and the AC50 (ORF 73) was 63.2 µM (active). For the same compound, the IC50 [14] was 9.29 µM (active), the IC50 [15] was 50.2 µM (inactive) and the IC50 [16] was 2.48 µM (active). For the same compound, the IC50 (Fatty acid synthase [17]) was 8.12 µM (active) and the IC50 [18] was 22.7 µM (inactive).

For CN(C)CC#Cc1cccc(-c2nc(C(=O)N[C@@H]3CCN(Cc4ccccc4)C3)cc3c2[C@@H](CCO)N([S+]([O-])C(C)(C)C)C3)c1 (some centres not stated), the AC50 [19] was 0.0256 µM (active).

For Cc1ccc(N2C(=O)NC(=O)/C(=C/c3ccc(-c4cccc(C(=O)O)c4)o3)C2=O)cc1, the IC50 (NS3) was 14.8 µM (inactive).

For O=C(C[C@@H]1CC[C@H]2[C@@H](COC[C@H](O)CN2Cc2ccc(Oc3ccccc3)cc2)O1)Nc1nccs1, the AC50 (HEK293) was 7.07 µM (active), the AC50 [20] was 7.07 µM (active) and the AC50 (HeLa) was 43.9 µM (active).
